{
  "source": "patent US20110195892A1",
  "about": "“Artifical Pulmonary Surfactant Compositions” (priority 2005, published 2011)",
  "key": {"erythrocyte": {"system": "erythrocyte", "format": "cell-based", "protocol": "The hemolytic activity of each peptide was measured in the way as will be described hereinafter.\nEach peptide (ca. 1 mg) was dissolved in 20 (l of 100% acetic acid and diluted with phosphate buffer to reach a total amount of 5 ml. The resulting solution was measured for its absorbency (280 nm) to determine its concentration. The solution was then used for experiments in situ by dilution with phosphate buffer.\nA blood sample (ca. 3 ml) was centrifuged at 2,000 rpm at 4° C. for 10 minutes and the supernatant was removed to form an erythrocyte sample. To the erythrocyte sample was added 1 ml of phosphate buffer, and the resulting solution was stirred well, followed by centrifugation in the manner as described above. These procedures were repeated three times to obtain the erythrocyte alone. Moreover, 1 ml of phosphate buffer was added to the resulting erythrocyte, and the resulting mixture was stirred well, followed by distributing it by 60 μl to microtubes and centrifuging to remove the supernatant therefrom. The resulting erythrocyte was in turn used for further experiments.\nThe peptide and a protein solution were then added by 1 ml to the erythrocyte sample, and the resulting solution was stirred well, followed by allowing it to stand at 25° C. for 60 minutes. Thereafter, the tubes were centrifuged to collect the supernatant only (100 μl) which was in turn measured at an absorbency of 542 nm. The supernatant was then returned to each tube and a drop of surfactant Triton® X was added to each tube, followed by stirring it well and measuring for its absorbency at 542 nm."}, "[1]": {"conditions": "Wilhelmy tensiometer; Japanese Patent Publication No. 2004-305006 A1; cited from earlier work"}},
  "note": "Square brackets hold non-standard residues; d marks the D form. Peptide text beside a SMILES is read from it.",
  "data": [
    {"compound": "CC(C)C[C@H](NC(=O)[C@H](CC(C)C)NC(=O)[C@H](CC(C)C)NC(=O)[C@H](CCCCN)NC(=O)[C@@H](CC(C)C)NC(=O)[C@H](CC(C)C)NC(=O)[C@H](CCCCN)NC(=O)[C@H](CC(C)C)NC(=O)[C@H](Cc1c[nH]c2ccccc12)NC(=O)[C@H](CC(C)C)NC(=O)[C@@H](CCCCN)NC(=O)[C@@H](CC(C)C)NC(=O)[C@H](CC(C)C)NC(=O)[C@H](CC(C)C)NC(=O)[C@H](CCCCN)NC(=O)[C@H](CC(C)C)NC(=O)[C@H](CC(C)C)NC(=O)[C@@H](N)CCCCN)C(=O)O", "note": "[Hel 13-5D3, NH2-Lys Leu Leu Lys Leu Leu D-Leu D-Lys Leu Trp Leu Lys D-Leu Leu Lys Leu Leu Leu-COOH] (H-KLLKLL[dL][dK]LWLKL[dL]KLLL-OH)", "values": [
      {"measurement": "hemolytic activity of the peptide itself compared to peptide Hel 13-5", "setting": "erythrocyte", "result": "lower by several times"}
    ]},
    {"compound": "H-KLLKLLLKLWLKLLKLLL-OH [Hel 13-5, NH2-Lys Leu Leu Lys Leu Leu Leu Lys Leu Trp Leu Lys Leu Leu Lys Leu Leu Leu-COOH]", "values": [
      {"measurement": "surface tension-surface area curve (hysteresis curve) compared with Surfacten", "setting": "[1]", "result": "equal curve to that of Surfacten®"},
      {"measurement": "hemolytic activity (in words)", "setting": "erythrocyte", "result": "strong hemolytic activity"},
      {"measurement": "hemolytic property", "setting": "erythrocyte", "result": "does not demonstrate a hemolytic property"}
    ]}
  ]
}
